Reference: patent US10925848B2, “Amide derivative” (Daiichi Sankyo Company, Limited, priority 2017, dated 2021)

Assays:
[1] = biological target: tryptophanase of Bacteroides tetaiotaomicron (Bacteroides thetaiotaomicron, UniProt Q8A7N2); assay: Tryptophanase enzyme inhibitory activity (LDH-coupled NADH loss); assay type: biochemical; conditions: 10 mM L-tryptophan, 30 min preincubation at 37° C., absorbance at 340 nm
Description: Tryptophanase inhibitory activity was evaluated by a method using lactate dehydrogenase (LDH). The reaction time-dependent reduction in NADH conjugated with the enzymatic reaction, with LDH, of pyruvic acid produced through the enzymatic reaction of L-tryptophan as a substrate with tryptophanase, was measured with a spectrophotometer (Phillips-R S et al., Biochemistry, 23, 6228-6234 (1984)). Enzyme inhibitory activity obtained without adding a test compound (by adding DMSO alone) in the presence of tryptophanase was used as a control. As the enzyme, tryptophanase of Bacteroides tetaiotaomicron (Genbank accession number: HC914434.1) was used.
A test compound solution was prepared by dissolving each test compound in DMSO at concentrations (from 30 mM to 30 nM at 10-fold common ratio). LDH, NADH and L-tryptophan were dissolved, using distilled water, respectively to concentrations of 80 units/mL, 10 mM and 50 mM. Bacteroides tryptophanase was prepared to 30 mg/mL. A potassium phosphate buffer was used as the buffer.
A reaction solution A was dispensed at 284.8 μL per well into a 96-well plate, and the test compound solution was added at 3.2 μL per well to obtain a final concentration of 1/100 (reaction solution B). The reaction solution B was incubated at 37° C. for 30 minutes, L-tryptophan was added thereto at 32 μL per well to obtain a final concentration of […] (reaction solution C), and the enzyme reaction was performed at 37° C. over 30 minutes with absorbance at 340 nm measured for monitoring the NADH loss. Based on the NADH loss, the tryptophanase inhibitory activity of the compound was evaluated.

Bacteroides = assay: Indole production suppressing effect in viable bacterium; assay type: cell-based; conditions: 5 mM L-Tryptophan assay medium, anaerobic, indole in culture supernatant, read-out: Bacteroides Indole Production Inhibitory Activity(IC50)
Description: The effect of a tryptophanase inhibitory compound to suppress indole production from a viable bacterium can be evaluated through the following operation.
When E. coli (Eschelicia coli) is used as a strain known to produce indole, the strain is cultured in an LB medium at 37° C. for 12 to 18 hours under anaerobic conditions, and then, suspended in an assay medium (5 mM L-Tryptophan/PBS(+)/25 mM HEPES (pH8)) in such a manner as to obtain O.D. of about 0.3. When bacteroides is used, the strain is cultured in a modified GAM medium at 37° C. for 12 to 18 hours under anaerobic conditions, and then suspended in an assay medium (5 mM L-Tryptophan/PBS(+)/25 mM HEPES (pH8)) in such a manner as to obtain O.D. of about 1.1. The thus obtained viable bacterial suspension prepared to have a final concentration of a compound of 1 μM to 10 mM is dispensed at 200 μL per well into a 96-well plate and cultured at 37° C. for 2 to 4 hours under anaerobic conditions, O.D., an ATP concentration (that can be quantitatively determined by using BacTiter-Glo (Promega Corporation)) and an indole concentration in the culture supernatant (that can be quantitatively determined by utilizing Ehrlich reaction) are measured. The effect of the tryptophanase inhibitory compound to suppress indole production from a viable bacterium can be evaluated depending on the degree of lowering of the indole concentration in the culture supernatant. It can be checked whether or not the effect is derived from a function other than tryptophanase inhibition, such as a bactericidal function or a bacterial growth inhibitory function, depending on lowering of the O.D. or reduction in the ATP concentration or by performing a generally practiced antibacterial activity test (a MIC (minimum growth inhibition concentration) test) using levofloxacin or the like as a positive control.
The activities of inhibiting indole production of the compounds of the respective examples shown in Table 13 were measured by the above-described method using Bacteroides to evaluate the effect of inhibiting indole production.

plasma indoxyl sulfate = assay: Effect of reducing plasma indoxyl sulfate concentration in mice; assay type: in vivo; conditions: oral gavage, plasma 6 hours after L-tryptophan
Description: An effect of a tryptophanase inhibitory compound to reduce plasma indoxyl sulfate concentration in a mouse can be evaluated through the following operation.
After fasting male BALB/c mice overnight, a tryptophanase inhibitory compound dissolved or suspended at a concentration of 0.01 to 10 mg/mL in 0.5% methylcellulose (MC) solution used as a solvent and 0.5% MC solution are orally administered by gavage at a volume of 10 mL/kg respectively to test compound groups and to a solvent control group. 30 minutes after the administration of the test compound or the solvent, L-tryptophan, that is, a substrate of tryptophanase, is orally administered by gavage at a dose of 1 to 3 g/kg. The L-tryptophan is suspended in a 0.5% tragacanth solution. For 12 hours after the administration of the L-tryptophan, blood is collected over time from a tail vein by using a hematocrit tube. The thus obtained blood is centrifuged at 11,000 rpm for 5 minutes to collect plasma, and the indoxyl sulfate concentration in the plasma is measured singly by liquid chromatography (fluorescence detection) or its combination with a mass spectrometer used subsequently. Plasma indoxyl sulfate concentration in the test compound group against the plasma indoxyl sulfate concentration in the solvent control group is calculated as, for example, a ratio of the area under a curve of the indoxyl sulfate concentration, and thus, the efficacy of each compound in vivo can be compared.
The indoxyl sulfate concentrations in plasma obtained by using the compounds of the respective examples shown in Table 14 below were measured by the above-described method to evaluate the plasma indoxyl sulfate suppressing effect.

Chain of tryptophanase of Bacteroides tetaiotaomicron (Q8A7N2 entry or part of it, change not shown): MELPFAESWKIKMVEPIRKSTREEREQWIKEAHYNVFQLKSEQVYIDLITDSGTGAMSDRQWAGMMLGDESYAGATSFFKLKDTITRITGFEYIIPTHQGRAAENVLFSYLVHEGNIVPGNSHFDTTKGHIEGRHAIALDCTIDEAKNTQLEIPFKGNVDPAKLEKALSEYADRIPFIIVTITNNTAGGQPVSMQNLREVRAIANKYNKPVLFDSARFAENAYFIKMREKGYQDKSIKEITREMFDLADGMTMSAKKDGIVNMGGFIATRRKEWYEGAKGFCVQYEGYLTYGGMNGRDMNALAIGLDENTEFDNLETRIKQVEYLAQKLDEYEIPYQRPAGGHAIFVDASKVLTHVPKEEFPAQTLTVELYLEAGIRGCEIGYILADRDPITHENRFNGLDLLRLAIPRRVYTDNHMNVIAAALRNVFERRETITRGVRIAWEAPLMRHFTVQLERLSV

| SMILES | IC50 [1] | IC50 (Bacteroides) | Plasma Indoxyl Sulfate Reduction Effect in Male BALB/c Mouse (Indoxyl sulfate reduction effect in plasma 6 hours after administration of L-tryptophan: ED75-, mg/kg) (plasma indoxyl sulfate) |
| --- | --- | --- | --- |
| CCC(CC)(NC(=O)c1ccc(N)cc1)C(=O)O [Compound of Example 1, 2-[(4-Aminobenzoyl)amino]-2-ethylbutanoic Acid] | 27.1 µM |  |  |
| CCC(CC)(NC(=O)c1ccc(N)c(C)c1)C(=O)O [Compound of Example 2, 2-[(4-Amino-3-methylbenzoyl)amino]-2-ethylbutanoic Acid] | 7.8 µM |  |  |
| CCC(CC)(NC(=O)c1cc(C)c(N)c(C)c1)C(=O)O [Compound of Example 3, 2-[(4-Amino-3,5-dimethylbenzoyl)amino]-2-ethylbutanoic Acid] | 8 µM |  |  |
| CCC(NC(=O)c1ccc(N)c(C)c1)(C(=O)O)C1CC1 (stereo not shown) [Compound of Example 4, 2-[(4-Amino-3-methylbenzoyl)amino]-2-cyclopropyl butanoic Acid] | 1.7 µM |  |  |
| CCC(NC(=O)c1ccc(N)c(Cl)c1)(C(=O)O)C1CC1 (stereo not shown) [Compound of Example 5, 2-[(4-Amino-3-chlorobenzoyl)amino]-2-cyclopropyl butanoic Acid] | 1 µM |  |  |
| CCC(CC)(NC(=O)c1cc(Cl)c(N)cc1OC)C(=O)O [Compound of Example 6, 2-[(4-Amino-5-chloro-2-methoxybenzoyl)amino]-2-ethylbutanoic Acid] | 0.2 µM | < 3 µM | 1 mg/kg |
| CCC(CC)(NC(=O)c1cc(F)c(N)c(Cl)c1)C(=O)O [Compound of Example 7, 2-[(4-Amino-3-chloro-5-fluorobenzoyl)amino]-2-ethylbutanoic Acid] | 6.9 µM |  |  |
| CCOc1cc(N)c(Cl)cc1C(=O)NC(C)(C)C(=O)O [Compound of Example 8, N-(4-Amino-5-chloro-2-ethoxybenzoyl)-2-methylalanine] | 1.3 µM |  |  |
| CC(C)Oc1cc(N)c(Cl)cc1C(=O)NC(C)(C)C(=O)O [Compound of Example 9, N-[4-Amino-5-chloro-2-(propan-2-yloxy)benzoyl)-2-methylalanine] | 0.39 µM |  |  |
| CC[C@@](C)(NC(=O)c1cc(Cl)c(N)cc1OC)C(=O)O [Compound of Example 10, (−)-N-(4-Amino-5-chloro-2-methoxybenzoyl)-D-isovaline] | 1.53 µM | < 3 µM | 1 mg/kg |
| CCOc1cc(N)c(Cl)cc1C(=O)N[C@](C)(CC)C(=O)O [Compound of Example 11, (−)-N-(4-Amino-5-chloro-2-ethoxybenzoyl)-D-isovaline] | 0.09 µM | < 3 µM | 1 mg/kg |
| CC[C@](C)(NC(=O)c1cc(Cl)c(N)cc1OC)C(=O)O [Compound of Example 12, (+)-N-(4-Amino-5-chloro-2-methoxybenzoyl)-L-isovaline] | 0.31 µM |  |  |
| CCOc1cc(N)c(Cl)cc1C(=O)N[C@@](C)(CC)C(=O)O [Compound of Example 13, (+)-N-(4-Amino-5-chloro-2-ethoxybenzoyl)-L-isovaline] | 0.08 µM |  |  |
| CCCOc1cc(N)c(Cl)cc1C(=O)NC(C)(C)C(=O)O [Compound of Example 14, N-(4-Amino-5-chloro-2-propoxybenzoyl)-2-methylalanine] | 0.2 µM |  |  |
| CC[C@@](C)(NC(=O)c1cc(Br)c(N)cc1OC)C(=O)O [Compound of Example 15, (−)-N-(4-Amino-5-bromo-2-methoxybenzoyl)-D-isovaline] | 0.77 µM | < 3 µM | 1 mg/kg |
| CC[C@@](C)(NC(=O)c1cc(I)c(N)cc1OC)C(=O)O [Compound of Example 16, (−)-N-(4-Amino-5-iodo-2-methoxybenzoyl)-D-isovaline] | 0.36 µM | < 3 µM | 1 mg/kg |
| CC[C@](C)(NC(=O)c1cc(Br)c(N)cc1OC)C(=O)O [Compound of Example 17, (+)-N-(4-Amino-5-bromo-2-methoxybenzoyl)-L-isovaline] | 0.14 µM |  |  |
| CC[C@](C)(NC(=O)c1cc(I)c(N)cc1OC)C(=O)O [Compound of Example 18, (+)-N-(4-Amino-5-iodo-2-methoxybenzoyl)-L-isovaline] | 0.1 µM |  |  |
| CCOc1cc(N)c(Br)cc1C(=O)N[C@@](C)(CC)C(=O)O [Compound of Example 19, (+)-N-(4-Amino-5-bromo-2-ethoxybenzoyl)-L-isovaline] | 0.06 µM |  |  |
| CCOc1cc(N)c(I)cc1C(=O)N[C@@](C)(CC)C(=O)O [Compound of Example 20, (+)-N-(4-Amino-2-ethoxy-5-iodobenzoyl)-L-isovaline] | 0.05 µM |  |  |
| CCOc1cc(N)c(Br)cc1C(=O)N[C@](C)(CC)C(=O)O [Compound of Example 21, (−)-N-(4-Amino-5-bromo-2-ethoxybenzoyl)-D-isovaline] | 0.1 µM | < 3 µM | 1 mg/kg |
| CCOc1cc(N)c(I)cc1C(=O)N[C@](C)(CC)C(=O)O [Compound of Example 22, (−)-N-(4-Amino-2-ethoxy-5-iodobenzoyl)-D-isovaline] | 0.08 µM |  |  |
| CC[C@@](C)(NC(=O)c1cc(C(F)(F)F)c(N)cc1OC)C(=O)O [Compound of Example 26, (−)-N-(4-Amino-2-methoxy-5-(trifluoromethyl)benzoyl)-D-isovaline] | 0.84 µM |  |  |
| CC[C@@](C)(NC(=O)c1cc(C)c(N)cc1OC)C(=O)O [Compound of Example 28, N-(4-Amino-2-methoxy-5-methylbenzoyl)-D-isovaline] | 3.13 µM |  |  |
| CCOc1cc(N)c(C#N)cc1C(=O)N[C@](C)(CC)C(=O)O [Compound of Example 29, (−)-N-(4-Amino-5-cyano-2-ethoxybenzoyl)-D-isovaline] | 0.02 µM |  |  |
| CC[C@@](C)(NC(=O)c1cc(F)c(N)cc1OC)C(=O)O [Compound of Example 30, (−)-N-(4-Amino-5-fluoro-2-methoxybenzoyl)-D-isovaline] | 5.61 µM |  |  |
| CC[C@@](C)(NC(=O)c1cc(Cl)c(N)cc1OC(F)F)C(=O)O [Compound of Example 31, (−)-N-[4-Amino-5-chloro-2-(difluoromethoxy)benzoyl]-D-isovaline] | 0.11 µM |  |  |
| CCCOc1cc(N)c(F)cc1C(=O)NC(C)(C)C(=O)O [Compound of Example 32, N-(4-Amino-5-fluoro-2-propoxybenzoyl)-2-methylalanine] | 0.54 µM |  |  |
